Earlier results on 1 molecule are cited in patent US20240000809A1, “IMPROVED USE OF CANNABINOIDS IN THE TREATMENT OF EPILEPSY” (ORCOSA INC., priority 2020, published 2024).

The structures appear in SMILES notation.

The conditions of this data set: ingested orally, extensive first pass metabolism.

Consider `C=C(C)[C@@H]1CCC(C)=C[C@H]1c1c(O)cc(CCCCC)cc1O` [CBD, cannabidiol], for which the bioavailability is recorded as 6 to 11%.
